# According to the C3SDB collision cross section collection:
# Settings: [M+H]+; instrument: TW
row,Structure (SMILES),collision cross section (N2) [Å²]
1,CC(C)Oc1cccc(NC(=O)c2ccccc2C(F)(F)F)c1 [Flutolanil],175.45
2,COC(=O)C(C)N(C(=O)c1ccco1)c1c(C)cccc1C (configuration not stated) [Furalaxyl],167.15
3,CCCN1C[C@H](C)[C@@H](O)[C@](C)(O)[C@@H](CC)OC(=O)[C@H](C)[C@@H](O[C@H]2C[C@@](C)(OC)[C@@H](O)[C@H](C)O2)[C@H](C)[C@@H](O[C@@H]2O[C@H](C)C[C@H](N(C)C)[C@H]2O)[C@](C)(O)C[C@H]1C [Gamithromycin],280.6
4,CC(Oc1ccc(Oc2ncc(C(F)(F)F)cc2Cl)cc1)C(=O)O (configuration not stated) [Haloxyfop],179.86
5,COP(=O)(OC)OC1=C(Cl)C2C=CCC12 (configuration not stated) [Heptenophos],144.04
6,CCCCC(O)(Cn1cncn1)c1ccc(Cl)cc1Cl (configuration not stated) [Hexaconazole],171.26
7,CC(C(=O)O)c1ccc(N2Cc3ccccc3C2=O)cc1 (configuration not stated) [Indoprofen],166.4
8,CC(C)c1ncc([N+](=O)[O-])n1C [Ipronidazole],126.1
9,c1ccc([C@H]2CN3CCSC3=N2)cc1 [Levamisole],138.2
10,CON(C)C(=O)Nc1ccc(Cl)c(Cl)c1 [Linuron],149.63
11,CC#Cc1cc(C)nc(Nc2ccccc2)n1 [Mepanipyrim],152.07
12,CS(=O)(=O)c1ccc(C(=O)C2C(=O)CCCC2=O)c([N+](=O)[O-])c1 [Mesotrione],175.66
13,COCC(=O)N(c1c(C)cccc1C)C(C)C(=O)OC (configuration not stated) [Metalaxyl],159.96
14,COc1ccc2cc([C@H](C)C(=O)O)ccc2c1 [Naproxen],147.1
15,O=C(O)c1cccnc1Nc1cccc(C(F)(F)F)c1 [Niflumic acid],156.8
16,CCN(Cc1ccc(Cl)nc1)/C(=C/[N+](=O)[O-])NC [Nitenpyram],160.32
17,CO/C=C(/C(=O)OC)c1ccccc1COc1cccc(C(F)(F)F)n1 [Picoxystrobin],177.5
18,C[C@]12C=CC(=O)C=C1CC[C@@H]1[C@@H]2C(=O)C[C@@]2(C)[C@H]1CC[C@]2(O)C(=O)CO [Prednisone],180.1

row,Structure (SMILES),collision cross section (N2) [Å²]
1,CC1=NNC(=O)N(/N=C/c2cccnc2)C1 [Pymetrozine],150.71
2,CCCCCCCCSC(=O)Oc1cc(Cl)nnc1-c1ccccc1 [Pyridate],199.9
3,O=C(O)c1c(Cl)ccc2cc(Cl)cnc12 [Quinclorac],139.54
4,C=C1C[C@@]23CC[C@H]4[C@@](C)(CCC[C@@]4(C)C(=O)O)[C@@H]2CC[C@]1(O[C@@H]1O[C@H](CO)[C@@H](O)[C@H](O[C@@H]2O[C@H](CO)[C@@H](O)[C@H](O)[C@H]2O)[C@H]1O[C@@H]1O[C@H](CO)[C@@H](O)[C@H](O)[C@H]1O)C3 [Rebaudioside B],261.19
5,C=C1C[C@@]23CC[C@H]4[C@@](C)(CCC[C@@]4(C)C(=O)O[C@@H]4O[C@H](CO)[C@@H](O)[C@H](O)[C@H]4O)[C@@H]2CC[C@]1(O[C@@H]1O[C@H](CO)[C@@H](O)[C@H](O[C@@H]2O[C@H](CO)[C@@H](O)[C@H](O)[C@H]2O)[C@H]1O[C@@H]1O[C@@H](C)[C@H](O)[C@@H](O)[C@H]1O)C3 [Rebaudioside C],299.49
6,C=C1C[C@@]23CC[C@H]4[C@@](C)(CCC[C@@]4(C)C(=O)O[C@@H]4O[C@H](CO)[C@@H](O)[C@H](O)[C@H]4O[C@@H]4O[C@H](CO)[C@@H](O)[C@H](O)[C@H]4O)[C@@H]2CC[C@]1(O[C@@H]1O[C@H](CO)[C@@H](O)[C@H](O)[C@H]1O[C@@H]1O[C@H](CO)[C@@H](O)[C@H](O)[C@H]1O)C3 [Rebaudioside E],289.2
7,C=C1C[C@@]23CC[C@H]4[C@@](C)(CCC[C@@]4(C)C(=O)O[C@@H]4O[C@H](CO)[C@@H](O)[C@H](O)[C@H]4O)[C@@H]2CC[C@]1(O[C@@H]1O[C@H](CO)[C@@H](O)[C@H](O[C@@H]2O[C@H](CO)[C@@H](O)[C@H](O)[C@H]2O)[C@H]1O[C@@H]1OC[C@@H](O)[C@H](O)[C@H]1O)C3 [Rebaudioside F],293.18
8,C=C1C[C@@]23CC[C@H]4[C@@](C)(CCC[C@@]4(C)C(=O)O[C@@H]4O[C@H](CO)[C@@H](O)[C@H](O)[C@H]4O)[C@@H]2CC[C@]1(O[C@@H]1O[C@H](CO)[C@@H](O)[C@H](O)[C@H]1O)C3 [Rubusoside],241.31
9,C=C1C[C@@]23CC[C@H]4[C@@](C)(CCC[C@@]4(C)C(=O)O[C@@H]4O[C@H](CO)[C@@H](O)[C@H](O)[C@H]4O)[C@@H]2CC[C@]1(O[C@@H]1O[C@H](CO)[C@@H](O)[C@H](O)[C@H]1O[C@@H]1O[C@H](CO)[C@@H](O)[C@H](O)[C@H]1O)C3 [Stevioside],269.64
10,COc1cc(NS(=O)(=O)c2ccc(N)cc2)nc(OC)n1 [Sulfadimethoxine],166
11,Nc1ccc(S(=O)(=O)Nc2nccs2)cc1 [Sulfathiazole],148.2
12,CC(C)(C)C(O)(CCc1ccc(Cl)cc1)Cn1cncn1 (configuration not stated) [Tebuconazole],167.37
13,CCOP(=S)(OCC)SCS(=O)(=O)C(C)(C)C [Terbufos-sulfone],172.88
14,CCNc1nc(Cl)nc(NC(C)(C)C)n1 [Terbuthylazine],153.48
15,N#C/N=C1\SCCN1Cc1ccc(Cl)nc1 [Thiacloprid],154.84
16,COC(=O)NC(=S)Nc1ccccc1NC(=S)NC(=O)OC [Thiophanate-methyl],174.24
17,CCCNC[C@]1(O)[C@H](C)O[C@@H](O[C@H]2[C@H](C)[C@@H](O[C@@H]3O[C@H](C)C[C@H](N(C)C)[C@H]3O)[C@](C)(O)C[C@@H](C)CN[C@H](C)[C@@H](O)[C@](C)(O)[C@@H](CC)OC(=O)[C@@H]2C)C[C@@]1(C)OC [Tulathromycin],286.4

# Settings: [M+H]+; instrument: DT; stepped-field
row,collision cross section (N2) [Å²],Structure (SMILES)
1,301,CCCCC/C=C\C/C=C\C/C=C\CCCCCCC(=O)O[C@H](COCCCCCCCCCCCCCCCC)COP(=O)([O-])OCC[N+](C)(C)C [PC(o36:3)]

# Same assay, conditions: [M-H]-; instrument: DT; stepped-field
row,collision cross section (N2) [Å²],Structure (SMILES)
1,198.8,CCCCCCCC/C=C\CCCCCCCC(=O)OC[C@@H](O)COP(=O)(O)O [LPA(18:1)]
2,214.3,CCCCCCCCCCCCCCCC(=O)OC[C@@H](O)COP(=O)(O)OC[C@@H](O)CO [LPG(16:0)]
3,212,CCCCCC/C=C\CCCCCCCC(=O)OC[C@@H](O)COP(=O)(O)OC[C@@H](O)CO [LPG(16:1)]
4,251.8,CCCCCCCC/C=C\CCCCCCCCCC(=O)O[C@H](COC(=O)CCCCCCCCCCC)COP(=O)(O)O [PA(16:0/16:1)]
5,268,CCCCCCCCCC/C=C\CCCCCCCCCC(=O)O[C@H](COC(=O)CCCCCCCCCCCCC)COP(=O)(O)O [PA(18:0/18:1)]
6,264,CCCCC/C=C\C/C=C\CCCCCCCCCCCC(=O)O[C@H](COC(=O)CCCCCCCCCCCCC)COP(=O)(O)O [PA(18:1/18:1)]
